Measurements: patent US5795887A, “Method of inducing cholecystokinin agonist activity using 1,4- Benzodiazepine compounds” (Glaxo Wellcome Inc., priority 1994, dated 1998)

B1: CCK: a peptide found in the gastrointestinal tract and the central nervous system (peptide, UniProt P06307 21-115, looked up)
Cholecystokinin: QPVPPADPAGSGLQRAEEAPRRQLRVSQRTDGESRAHLGALLARYIQQARKAPSGRMSIVKNLQNLDPSHRISDRDYMGWMDFGRRSAEEYEYPS
modifications: Cholecystokinin
notes: a peptide found in the gastrointestinal tract and the central nervous system

How the values were obtained:
[1] = system: isolated guinea pig gallbladder; assay: Isolated guinea pig gallbladder assay (contraction, % CCK-induced maximal response); conditions: Cavia porcellus, Table 2
Description: 3. GUINEA PIG GALL BLADDER ASSAY
Gallbladders are removed from guinea pigs sacrificed by cervical dislocation. The isolated gallbladders are cleaned of adherent connective tissue and cut into two rings from each animal (2-6 mm in length). […] Tissues are connected via gold chains and stainless steel mounting wires to isometric force displacement transducers (Grass, Model FT03 D). Responses are then recorded on a polygraph (Grass, Model 7E).
Rings are gradually stretched (over a 120 min. period) to a basal resting tension of 1 gm which is maintained throughout the experiment. During the basal tension adjustment period, the rings are exposed to acetylcholine (10^-6 M) four times to verify tissue contractility. The tissues are then exposed to a submaximal dose of sulfated CCK-8 (Sigma, 3×10^-9 M). After obtaining a stable response, the tissues are washed out 3 times rapidly and every 5 to 10 minutes for 1 hour to reestablish a stable baseline.
As a final test, ACH (10 μM) is added to induce maximal contraction.

rat gastric emptying = assay: Rat gastric emptying assay (methyl cellulose/phenol red test meal); assay type: in vivo; conditions: intraperitoneally at 0.1 μmoles/kg; vehicle 66
Description: 7. RAT GASTRIC EMPTYING PROTOCOL
Methyl Cellulose (MC) Test Meal
1. Disperse MC in water at 80° C. at a final concentration of 1.5% under continuous stirring. Cool to room temperature.
2. Add Phenol Red (50 mg/100) to solution.
3. Keep solution stirring during entire experiment.
1. Food deprive animals for 18 hours.
2. Inject test drug/prop. glycol or prop. glycol alone intraperitoneally.
3. After 5 minutes, gavage 1.5 mL of Pheno Red/MC solution
1. After 20 minutes, decapitate animal
2. Clamp stomach at the pylorus and cardia ends, and rinse in 0.9% NaCl.
3. Place stomach in 100 mL of 0.1N NaOH, cut into small pieces, and homogenize for 30 seconds.
4. Let settle at room temperature for 60 minutes.
5. In centrifuge tube, add 5 mL of supernatant and 0.5 mL of trichloroacetic acid (29% w/v), and centrifuge at 2,800 rpm for 20 minutes.
6. Decant supernatant, and add 4 mL of 0.5N NaOH and read absorbance at a wavelength of 560 nm.
The standard stomach is determined from the phenol red recovered in stomachs of rats decapitated immediately after intragastric infusion of MC/phenol red.

[2] = literature background; cited from earlier work

Molecule	% contraction ([1]; delivered at 3 μM) [%]	rat gastric emptying: % emptying (rat gastric emptying) [%]	% contraction ([1]; delivered at 30 μM) [%]	inhibition of gastric emptying in humans [2]
COc1ccc(N(C(=O)CN2C(=O)C(Cc3n[nH]c4ccccc34)C(=O)N(c3ccccc3)c3ccccc32)C(C)C)cc1 (centres unmarked) [CCK-A agonist 1, 2[3(1H-Indazol-3-ylmethyl)-2,4-dioxo-5-phenyl-2,3,4,5-tetrahydro-benzo[b]1,4]diazepin1-ylN-isopropyl-N-(4-methoxy-phenyl) acetamide, reference compound]	87	6	–	–
COc1ccc(N(C(=O)CN2C(=O)C(Cc3n[nH]c4ccccc34)C(=O)N(c3ccccn3)c3ccccc32)C(C)C)cc1 (centres unmarked) [CCK-A agonist 2, reference compound]	–	2.5	100	–
B1	–	–	–	inhibit gastric emptying in humans
